In patent US8637504B2, “Sulfur-containing heterocyclic derivative having beta secretase inhibitory activity” (Shionogi & Co., Ltd., priority 2008, dated 2014):
Where two headings read alike, the source gives them in different places.

Biological target: Recombinant human BACE-1 (Homo sapiens (Human), UniProt P56817)
Assay: Assay of β-secretase-inhibiting activity
[1] = Recombinant human BACE-1 7.4 nM, substrate peptide 18 nM, pH 5.0, 30° C. 3 hours

Recombinant human BACE-1, sequence (P56817 46-501): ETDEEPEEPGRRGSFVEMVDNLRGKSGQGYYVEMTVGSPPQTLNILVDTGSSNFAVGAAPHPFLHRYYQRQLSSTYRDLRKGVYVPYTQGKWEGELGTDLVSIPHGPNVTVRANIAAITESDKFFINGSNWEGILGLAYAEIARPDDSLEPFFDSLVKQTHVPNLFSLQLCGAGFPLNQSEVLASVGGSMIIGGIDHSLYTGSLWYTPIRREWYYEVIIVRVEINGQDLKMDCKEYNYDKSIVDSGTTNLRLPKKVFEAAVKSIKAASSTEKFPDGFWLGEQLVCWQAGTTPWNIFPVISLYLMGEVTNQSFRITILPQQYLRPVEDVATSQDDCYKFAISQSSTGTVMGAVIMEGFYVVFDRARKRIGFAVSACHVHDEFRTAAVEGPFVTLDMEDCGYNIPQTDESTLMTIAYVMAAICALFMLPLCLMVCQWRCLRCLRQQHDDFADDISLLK

Structure (SMILES)	IC50	IC50 [1]
COCCOc1cnc(C(=O)Nc2cccc(C3(C4CCCCC4)CSC(N)=N3)c2)cn1 (stereo not drawn) [Compound 1]	≤ 1000 nM	–
NC1=NC(c2cccc(NC(=O)c3ccc(O)cn3)c2)(C2CCCCC2)CS1 (stereo not drawn) [Compound 3]	–	966 nM
COc1ccc(C2(c3cccc(NC(=O)c4ncc(Cl)cc4Cl)c3)CSC(N)=N2)cc1 (stereo not drawn) [Compound 4]	≤ 1000 nM	–
COc1ccc(C2(c3cccc(NC(=O)c4cnc(O)cn4)c3)CSC(N)=N2)cc1 (stereo not drawn) [Compound 5]	≤ 1000 nM	–
Cc1cnc(C(=O)Nc2ccc(F)c([C@]3(C)C=CSC(N)=N3)c2)cn1 [Compound 12]	≤ 1000 nM	–
COc1cnc(C(=O)Nc2ccc(F)c([C@]3(C)C=CSC(N)=N3)c2)cn1 [Compound 13]	≤ 1000 nM	–
C#CCOc1cnc(C(=O)Nc2ccc(F)c([C@]3(C)C=CSC(N)=N3)c2)cn1 [Compound 14]	≤ 1000 nM	–
Cc1nc(C(=O)Nc2ccc(F)c([C@]3(C)C=CSC(N)=N3)c2)co1 [Compound 15]	≤ 1000 nM	–
C[C@@]1(c2cc(NC(=O)c3ccc(Cl)cn3)ccc2F)C=CSC(N)=N1 [Compound 16]	–	10 nM
COc1cnc(C(=O)Nc2ccc(F)c([C@]3(C)C=C(c4ccccc4)SC(N)=N3)c2)cn1 [Compound 18]	≤ 1000 nM	–
Cc1cnc(C(=O)Nc2ccc(F)c([C@]3(C)C=C(c4ccccc4)SC(N)=N3)c2)cn1 [Compound 19]	≤ 1000 nM	–
CC(C)=C1C[C@@](C)(c2cc(NC(=O)c3cnc(C)cn3)ccc2F)N=C(N)S1 [Compound 20]	–	95 nM
COc1cnc(C(=O)Nc2ccc(F)c([C@]3(C)CC(=C(C)C)SC(N)=N3)c2)cn1 [Compound 21]	–	19 nM
COc1cnc(C(=O)Nc2ccc(F)c([C@@]3(C)N=C(N)SC=C3C)c2)cn1 [Compound 22]	–	572 nM
C#CCOc1cnc(C(=O)Nc2ccc(F)c([C@@]3(C)N=C(N)SC=C3C)c2)cn1 [Compound 24]	–	54 nM
COc1cnc(C(=O)Nc2ccc(F)c([C@]3(C)C=C(C)SC(N)=N3)c2)cn1 [Compound 25]	≤ 1000 nM	–
C#CCOc1cnc(C(=O)Nc2ccc(F)c([C@]3(C)C=C(C)SC(N)=N3)c2)cn1 [Compound 26]	≤ 1000 nM	–
CC1=C[C@@](C)(c2cc(NC(=O)c3ccc(C#N)cn3)ccc2F)N=C(N)S1 [Compound 27]	≤ 1000 nM	–
COc1cnc(C(=O)Nc2cccc([C@]3(C)C=CSC(N)=N3)c2)cn1 [Compound 28]	≤ 1000 nM	–

Further lines, results first:

IC50	IC50 [1]	Structure (SMILES)
≤ 1000 nM	–	C#CCOc1cnc(C(=O)Nc2cccc([C@]3(C)C=CSC(N)=N3)c2)cn1 [Compound 29]
≤ 1000 nM	–	C[C@@]1(c2cccc(NC(=O)c3ccc(C#N)cn3)c2)C=CSC(N)=N1 [Compound 30]
≤ 1000 nM	–	C[C@@]1(c2cc(NC(=O)c3cnc(OCCF)cn3)ccc2F)C=CSC(N)=N1 [Compound 31]
–	73 nM	COCCOc1ccc(C(=O)Nc2ccc(F)c([C@]3(C)C=CSC(N)=N3)c2)nc1 [Compound 33]
≤ 1000 nM	–	COCCOc1cnc(C(=O)Nc2ccc(F)c([C@]3(C)C=CSC(N)=N3)c2)cn1 [Compound 34]
≤ 1000 nM	–	C[C@@]1(c2cc(NC(=O)c3cnc(-c4ccc[nH]4)cn3)ccc2F)C=CSC(N)=N1 [Compound 36]
≤ 1000 nM	–	COc1cnc(C(=O)Nc2ccc(F)c([C@]3(C)C=CSC(N)=N3)c2)c(N)n1 [Compound 37]
–	97 nM	C[C@@]1(c2cc(NC(=O)c3ccc(-c4ccc[nH]4)cn3)ccc2F)C=CSC(N)=N1 [Compound 39]
–	2130 nM	Cc1cnc(C(=O)Nc2cccc(C3(C(F)(F)F)CCSC(N)=N3)c2)cn1 (stereo not drawn) [Compound 44]
≤ 1000 nM	–	NC1=NC(c2cccc(NC(=O)c3ncc(Cl)cc3Cl)c2)(C(F)(F)F)CCS1 (stereo not drawn) [Compound 45]
–	611 nM	NC1=NC(c2cccc(NC(=O)c3cnc(OCCF)cn3)c2)(C(F)(F)F)CCS1 (stereo not drawn) [Compound 46]
–	91 nM	N#Cc1ccc(C(=O)Nc2cccc(C3(C(F)(F)F)CCSC(N)=N3)c2)nc1 (stereo not drawn) [Compound 47]
–	273 nM	COc1cnc(C(=O)Nc2cccc(C3(C(F)(F)F)CCSC(N)=N3)c2)cn1 (stereo not drawn) [Compound 48]
≤ 1000 nM	–	C#CCOc1cnc(C(=O)Nc2cccc(C3(C(F)(F)F)CCSC(N)=N3)c2)cn1 (stereo not drawn) [Compound 49]
